Source: patent publication US20240327374A1, “LENALIDOMIDE PROCESS” (priority 2023, published 2024)

Experiments:
Assay type in all cases: physicochemical
[1] = Six months stability of crystalline Form SRA: comparative XRPD pattern (polymorphic stability); conditions: after 6 months under 25° C.±2/65±5% RH and 40° C.±2/75±5% RH
Text: (§1) Inventors of the present application performed six months stability for the novel crystalline Form SRA according to the following temperature and relative humidity conditions: […]

[2] = Six months stability of crystalline Form SRA: moisture content by KF method
Text: as §1

[3] = Six months stability of crystalline Form SRA: assay / purity by HPLC
Text: as §1

With `Nc1cccc2c1CN(C1CCC(=O)NC1=O)C2=O` (stereo not shown) [Form SRA, 3-(7-amino-3-oxo-1H-isoindol-2-yl) piperidine-2,6-dione] the “Crystalline form by comparative XRPD, initial stage vs after stability” value [1] was “crystalline form remains unchanged”, the “Moisture Content (by KF method) Not more than 0.5% w/w” value ([2]; A = 25° C.±2/65±5% RH, 1M) was 0.22 % w/w and the “Moisture Content (by KF method) Not more than 0.5% w/w” value ([2]; A = 25° C.±2/65±5% RH, 2M) was 0.22 % w/w. For the same compound, the “Moisture Content (by KF method) Not more than 0.5% w/w” value ([2]; A = 25° C.±2/65±5% RH, 3M) was 0.23 % w/w, the “Moisture Content (by KF method) Not more than 0.5% w/w” value ([2]; A = 25° C.±2/65±5% RH, 6M) was 0.23 % w/w and the “Moisture Content (by KF method) Not more than 0.5% w/w” value ([2]; A = 25° C.±2/65±5% RH, Initial) was 0.23 % w/w. For the same compound, the “Moisture Content (by KF method) Not more than 0.5% w/w” value ([2]; B = 40° C.±2/75±5% RH, 1M) was 0.21 % w/w, the “Moisture Content (by KF method) Not more than 0.5% w/w” value ([2]; B = 40° C.±2/75±5% RH, 2M) was 0.22 % w/w and the “Moisture Content (by KF method) Not more than 0.5% w/w” value ([2]; B = 40° C.±2/75±5% RH, 3M) was 0.22 % w/w. The “Moisture Content (by KF method) Not more than 0.5% w/w” value ([2]; B = 40° C.±2/75±5% RH, 6M) was 0.22 % w/w, the “Moisture Content (by KF method) Not more than 0.5% w/w” value ([2]; B = 40° C.±2/75±5% RH, Initial) was 0.23 % w/w and the “Assay (by HPLC; on anhydrous basis) Between 98.0 to 102.0% w/w” value (“Assay … to 102.0% w/w” below) ([3]; A = 25° C.±2/65±5% RH, 1M) was 99.50 % w/w. For the same compound, the “Assay … to 102.0% w/w” value ([3]; A = 25° C.±2/65±5% RH, 2M) was 99.41 % w/w, the “Assay … to 102.0% w/w” value ([3]; A = 25° C.±2/65±5% RH, 3M) was 99.55 % w/w and the “Assay … to 102.0% w/w” value ([3]; A = 25° C.±2/65±5% RH, 6M) was 99.47 % w/w. The “Assay … to 102.0% w/w” value ([3]; A = 25° C.±2/65±5% RH, Initial) was 100.38 % w/w, the “Assay … to 102.0% w/w” value ([3]; B = 40° C.±2/75±5% RH, 1M) was 99.77 % w/w and the “Assay … to 102.0% w/w” value ([3]; B = 40° C.±2/75±5% RH, 2M) was 99.64 % w/w. For the same compound, the “Assay … to 102.0% w/w” value ([3]; B = 40° C.±2/75±5% RH, 3M) was 100.02 % w/w, the “Assay … to 102.0% w/w” value ([3]; B = 40° C.±2/75±5% RH, 6M) was 99.47 % w/w and the “Assay … to 102.0% w/w” value ([3]; B = 40° C.±2/75±5% RH, Initial) was 100.38 % w/w. The “HPLC purity retained in the stability study” value ([3]; six months stability study) was “exceeding 99.9 % w/w by HPLC”.
